Source: patent US10980764B1, “Exogenous ketone supplements for reducing anxiety-related behavior” (priority 2016, dated 2021)

Legend:
Type in all cases: in vivo, rat
[1] = Blood βHB and glucose ~40 min after single dose, 1 year old SPD rats, Study 2; details: right after 5 min EPM test, compared to control group
Experimental: One year old SPD rats were gavaged and EPM test was performed 30 min after administration. Treatment groups BD, KE, KEMCT, KSMCT, KEKS.
Another study was carried out using substantially similar methodologies and procedures as in Study 1, specifically using the EPM test to evaluate anxiety-related behavior in 1-year old SD rats when administered ketone supplementation versus control.

SPD rats = test: EPM after 7 days oral gavage, SPD rats, Study 3; details: 7 days gavage 5 g/kg b.w./day
Experimental: (§1) Generally, exogenous ketone supplementation was tested by adding to food and feeding chronically for 83 days in SPD rats and administering sub-chronically for 7 days in both rat models by daily intragastric gavage bolus, followed by assessment of anxiety measures on EPM. The groups included standard diet (SD) or SD+ketone supplementation.
(§2) EPM (Coulbourn Instruments) was used to assess anxiety-related behavior of the rats after 83 days of chronic feeding or after 7 days of oral gavage. EPM experiments were carried out under non-stress conditions (in dimly lit and quiet room) between 12.00 and 14.00 hours.
(§3) The rats were transferred in their home cage to the experimental room 30 min prior to beginning the experiment. Briefly, rats were placed in the intersection of the four arms of the EPM, facing the open arm opposite to where the experimenter was and their behavior was recorded for 5 minutes. The amount of time spent and number of entries made on the open arms, closed arms and the center zones were video recorded. Latency to entry into the closed arms and the distance travelled in each zones was also measured in chronically treated SPD rats. […] At the end of the 5-minute test, the rats were removed from the maze and placed back into their home cage. The maze was cleaned with 70% alcohol and after it with tap water and dried with paper towel between rats. The primary method for data collection was a video-tracking system with computer interface and video camera (SMART V3.0 PLATFORM, Panlab, Harvard Apparatus, USA), to automatically collect behavioral data in SPD rats. A blinded observer was present in the testing room separated from the maze by a curtain, and collected EPM data in both SPD and WAG/Rij animals.
(§4) Results were considered significant when p<0.05.

WAG/Rij rats = test: EPM after 7 days oral gavage, WAG/Rij rats, Study 3; details: 7 days gavage ~2.5 g/kg b.w./day
Experimental: as §1, §2
as §3, with “The primary method for data collection was a video-tracking system with computer interface and video camera (SMART V3.0 PLATFORM, Panlab, Harvard Apparatus, USA), to automatically collect behavioral data in SPD rats. A blinded observer was present in the testing room separated from the maze by a curtain, and collected EPM data in both SPD and WAG/Rij animals.” left out

[2] = Body weight, SPD rats, Study 3; details: compared to control
Experimental: The body weight of all animals was recorded before the first ketone treatment (before) and on the last day of the ketone treatment (after).
as §4

[3] = Blood βHB and glucose compared between the two animal models, Study 3; details: after sub-chronic ketone supplementation (7 days; ~2.5 vs ~5 g/kg b.w./day)
Excerpt: as §4

| Compound | Blood glucose level [1] | Entries to the closed arms (SPD rats; compared to control) | Time spent in the center (SPD rats; compared to control) | Time spent in the open arms (SPD rats; compared to control) | Entries to open arms (WAG/Rij rats; compared to control) | Time spent in the center (WAG/Rij rats; compared to control (SD)) | Body weight ([2]; after 7 days of treatment) | Body weight ([2]; after chronic feeding) | βHB levels in WAG/Rij rats compared to SPD rats [3] | Entries to the center (SPD rats; compared to control (SD)) |
| --- | --- | --- | --- | --- | --- | --- | --- | --- | --- | --- |
| CC(=O)CC(=O)OCCC(C)OC(=O)CC(C)=O (stereo not drawn) [KE, 1,3-butanediol-acetoacetate diester] | significantly lower | less frequent | decreased | increased | less entries | more time | lower | lower | Higher |  |
| Na^+/K^+-βHB mineral salt [KS] |  | less frequent | decreased |  |  |  |  |  |  | fewer times |
